Format in all cases: ADME
Series [1] concerns the target T1, CYP2E1 (Homo sapiens, UniProt P05181). Nature of the series: Inhibition of human CYP2E1 assessed as chlorzoxazone 6-hydroxylase activity at 2.5 mM after 72 hrs preincubation by HPLC analysis (RVb = 100%). On the set-up: scale not given: the % may be the effect or the level left. Particulars: probe chlorzoxazone (6-hydroxylation), read-out: Activity; call rule not given here.
Series [2] concerns the target T1, CYP2E1. The experiment in a line: Inhibition of human CYP2E1 assessed as chlorzoxazone 6-hydroxylase activity at 20 mM after 72 hrs preincubation by HPLC analysis in presence of 1 mM NADPH and 5 mM glutathione (RVb = 100%). Also on record: scale not given: the % may be the effect or the level left. The following applies: probe chlorzoxazone (6-hydroxylation), read-out: Activity.

In series [3] the target is T1, CYP2E1. Nature of the series: (§1) Inhibition of human CYP2E1 assessed as chlorzoxazone 6-hydroxylase activity by HPLC analysis. The following applies: human, probe chlorzoxazone (6-hydroxylation).
The target of series [4] is T2, Cytochrome P450 2E1 (Homo sapiens, UniProt P05181). The series is described as §1.
T2 sequence (P05181 whole entry): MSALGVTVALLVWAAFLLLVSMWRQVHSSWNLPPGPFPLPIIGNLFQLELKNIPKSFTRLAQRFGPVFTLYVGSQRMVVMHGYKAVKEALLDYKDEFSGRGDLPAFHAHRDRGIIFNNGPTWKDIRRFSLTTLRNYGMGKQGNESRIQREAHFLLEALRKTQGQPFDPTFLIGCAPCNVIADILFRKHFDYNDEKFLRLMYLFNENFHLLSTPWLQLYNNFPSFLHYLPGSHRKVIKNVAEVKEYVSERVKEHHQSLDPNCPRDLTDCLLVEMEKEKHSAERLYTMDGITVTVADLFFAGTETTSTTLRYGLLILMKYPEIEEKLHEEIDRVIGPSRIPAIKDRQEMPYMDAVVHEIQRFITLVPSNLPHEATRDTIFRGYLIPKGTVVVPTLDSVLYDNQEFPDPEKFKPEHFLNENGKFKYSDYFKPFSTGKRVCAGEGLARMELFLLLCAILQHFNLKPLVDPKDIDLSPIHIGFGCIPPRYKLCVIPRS
The target of series [5] is T1, CYP2E1. The experiment in a line: Inhibition of human CYP2E1 assessed as chlorzoxazone 6-hydroxylase activity at 40 mM after 72 hrs preincubation by HPLC analysis in presence of 1 mM NADPH (RVb = 100%). On the set-up: scale not given: the % may be the effect or the level left. The following applies: probe chlorzoxazone (6-hydroxylation), read-out: Activity.
The target in series [6] is T2, Cytochrome P450 2E1. Nature of the series: Inhibition of human CYP2E1-mediated chlorzoxazone hydroxylase activity at 2.5 to 40 mM by LC-MS/MS analysis. The following applies: recombinant enzyme, 40000 µM, TDE = time-dependent effect.
In series [7] the target is T1, CYP2E1. The experiment in a line: Inhibition of human CYP2E1 assessed as chlorzoxazone 6-hydroxylase activity at 40 mM after 72 hrs preincubation by HPLC analysis (RVb = 100%). The following applies: probe chlorzoxazone (6-hydroxylation), read-out: Activity. Also on record: scale not given: the % may be the effect or the level left.
Series [8] concerns the target T1, CYP2E1. Nature of the series: Inhibition of human CYP2E1 assessed as chlorzoxazone 6-hydroxylase activity at 20 mM after 72 hrs preincubation by HPLC analysis (RVb = 100%). Also on record: scale not given: the % may be the effect or the level left. The following applies: probe chlorzoxazone (6-hydroxylation), read-out: Activity.
In series [9] the target is T1, CYP2E1. Nature of the series: Inhibition of human CYP2E1 assessed as chlorzoxazone 6-hydroxylase activity at 20 mM after 72 hrs preincubation by HPLC analysis in presence of 1 mM NADPH (RVb = 100%). Also on record: scale not given: the % may be the effect or the level left. Particulars: probe chlorzoxazone (6-hydroxylation), read-out: Activity.
In series [10] the target is T2, Cytochrome P450 2E1. Nature of the series: Inhibition of human CYP2E1-mediated chlorzoxazone hydroxylase activity at 2.5 to 40 mM after 72 hrs by LC-MS/MS analysis in presence of 1 mM NADPH. Particulars: recombinant enzyme, 40000 µM.

The structures appear in SMILES notation.

T1 sequence (P05181 whole entry): as above

For `Nn1nnc2ccccc21`, in [1], the activity at 72 h, 2500 µM is < 1%.

For the compound `CC(=O)Nc1cccc(O)c1` [METACETAMOL], the activity at 72 h, 20000 µM in series [2] was found to be 91.3%; in [8], 89.3%; in series [9], 64.8%. Also, the inactivation rate constant (kinact) in series [3] is 0.000133 s⁻¹. In series [4], the Ki is 9.5 mM. Also, the figures for the activity at 72 h, 40000 µM in series [5] and in [7] were 43.7% and 65.7%, respectively. Further, the “inhibition (INH)” value in [6] is on record as “tde”; in [10] it was “Active”. Besides, the activity at 72 h, 2500 µM in [1] came out at 97.6%.

The values above are taken from ChEMBL document CHEMBL3526128, “Covalent modification and time-dependent inhibition of human CYP2E1 by the meta-isomer of acetaminophen” (Drug Metab Dispos, 2012).
